Source: patent US20230190887A1, “TARGETING G3BP AGGREGATION TO PREVENT NEURODEGENERATION” (priority 2019, published 2023)

System: NMJs in co-cultures with puromycin-resistant muscles
Test: NMJ function after local protein synthesis inhibition
Assay type: cell-based, mouse
Settings: Puromycin 100 μg/mL exclusively in NMJ compartment, 16 h
Method: Analysis of NMJ function following protein synthesis inhibition with puromycin was performed by co-culturing WT MNs with primary muscles transfected with empty […]-mCherry vectors expressing PAC gene for puromycin resistance. After 12 days in co-culture, once cultures matured and NMJ were formed, Puromycin (100 μg/mL) was added exclusively to the distal (NMJ) compartment for 16 h. The proximal compartment was kept with higher volume of medium for allowing puromycin to act only locally within the NMJ compartment. After 16 h, cultures were labeled with OGB, and the calcium activity of axons and muscles was recorded. Analysis of the percent of muscles with calcium transients in co-culture, was performed on muscles with at least one overlapping axon. Only muscles that expressed mCherry (as a reporter for the expression of PAC) were used for this analysis. OGB lyophilized stock (Life technologies) was resuspended with 20% (w/v) Pluronic acid for a stock concentration of 3 mM Stock was diluted 1:1,000 in the appropriate medium. OGB was incubated with cultures for […] in 37° C., 5% CO2 incubator, and then washed 3 times with culture medium prior imaging. Calcium transients in axons and muscles were recorded in a spinning disk confocal microscope equipped with an EMCCD camera with ×40 oil objective using 488 nm laser. Image sequences of 1,000 frames were acquired at frame rate of 25 FPS. […]

COc1ccc(C[C@H](N)C(=O)N[C@H]2[C@@H](O)[C@H](n3cnc4c(N(C)C)ncnc43)O[C@@H]2CO)cc1 [puromycin, Puromycin]
active (innervated and contracting) muscles, calcium transients: pronounced decrease in active muscles
